{"source": "patent US20180243308A1", "about": "“PHARMACEUTICAL COMBINATION” (Boehringer Ingelheim International GmbH, priority 2008, published 2018)", "key": {"[1]": {"system": "Calu-6 xenografts (human NSCLC tumor cell line)", "assay": "subcutaneous Calu-6 NSCLC xenografts, single agents and combination", "type": "in vivo", "settings": "Calu-6 xenografts in nude mice, end of experiment (38 days of treatment), suboptimal doses", "method": "In order to analyse the anti-tumor effects of combining the inhibition of tumor angiogenesis by interfering with the VEGFR signaling cascade with the established anti-proliferative treatment modality of NSCLC with compound B1, the following in vivo experiment was performed. Nude mice carrying established subcutaneous Calu-6 xenografts (human NSCLC tumor cell line) were randomized and treated with either compound B1 or compound A1 alone or with the combination of both drugs."}, "[2]": {"system": "recurrent advanced stage NSCLC", "protocol": "Patients with advanced stage NSCLC, PS 0-1, previously treated with one first line platinum-based chemotherapy regimen were eligible for this trial. […] Tumor assessments were performed at screening and after every second treatment cycle according to RECIST (Response Evaluation Criteria in Solid Tumors)."}, "[3]": {"system": "advanced non-small-cell lung cancer", "assay": "Phase II double-blind randomized study of two doses of compound A1", "type": "in vivo, human", "settings": "for median Progression Free Survival (PFS) time: all patients", "method": "This study was conducted as a Phase II double-blind, randomized study of two different doses of orally administered compound A1 in patients with advanced non-small-cell lung cancer who had failed at least one prior chemotherapy regimen. The primary efficacy endpoints evaluated were response rate and time to progression. Important secondary endpoints were survival and tolerability of compound A1.\nPatients were randomly assigned to receive compound A1 at a dose of 250 mg twice daily or 150 mg twice daily. The dose of compound A1 could be reduced stepwise to no lower than 100 mg twice daily in case of undue toxicity that would prevent chronic treatment. Patients were treated until diagnosis of progression of the underlying lung cancer disease. Progressive disease, for the analysis of the primary endpoint, was defined as radiological evidence of tumour progression according to RECIST criteria.\nThis randomized study enrolled 73 patients in total, 36 patients at the dose of 250 mg twice daily and 37 patients at the dose of 150 mg twice daily.\nThe ECOG performance status score is a scale from 0 to 5 with criteria used by doctors and researchers to assess how a patient's disease is progressing, assess how the disease affects the daily living abilities of the patient, and determine appropriate treatment and prognosis (Oken, M. M., Creech, R. H., Tormey, D. C., Horton, J., Davis, T. E., McFadden, E. T., Carbone, P. P.: Toxicity And Response Criteria Of The Eastern Cooperative Oncology Group. Am J Clin Oncol 5:649-655, 1982). […] Overall Survival (OS) time is defined as the length of time a patient lives after they are diagnosed with or treated for a disease."}, "[4]": {"system": "relapsed ovarian cancer", "assay": "Phase II maintenance trial of compound A1 versus placebo", "type": "in vivo, human", "method": "The primary efficacy endpoint of this trial was the Progression Free Survival Rate (PFSR) at 9 months after start of treatment with compound A1. As secondary endpoints PFS rate at 3 months and 6 months, respectively, and time to next anti-tumour treatment were evaluated.\nPatients were randomly assigned to receive compound A1 at a dose of 250 mg twice daily or matching placebo. […] Patients were treated until diagnosis of progression of the underlying ovarian cancer disease. Progressive disease, for the analysis of the primary endpoint, was defined as either radiological progression, or tumour marker (CA-125) progression.\nIn total, 84 patients were entered into the trial. 44 patients were randomised to receive compound A1 at a dose of 250 mg twice daily, and 40 patients to receive matching placebo."}, "[5]": {"system": "Calu-6", "assay": "in vivo anti-tumor efficacy, Calu-6 xenograft model", "settings": "Lung (non-small-cell), Calu-6, 50 mg/kg/d"}, "[6]": {"system": "SKOV3", "assay": "in vivo anti-tumor efficacy, SKOV3 xenograft model", "settings": "Ovarian, SKOV3, 50 mg/kg/d"}, "[7]": {"system": "PAC-120", "assay": "in vivo anti-tumor efficacy, PAC-120 xenograft model", "settings": "Prostate (hormone-dependent), PAC-120, 100 mg/kg/d"}, "[8]": {"system": "HT-29", "assay": "in vivo anti-tumor efficacy, HT-29 xenograft model", "settings": "Colorectal, HT-29, 100 mg/kg/d"}, "[9]": {"system": "Caki-1", "assay": "in vivo anti-tumor efficacy, Caki-1 xenograft model", "settings": "Renal, Caki-1, 100 mg/kg/d"}, "[10]": {"system": "HT-29 large tumors", "assay": "in vivo anti-tumor efficacy, HT-29 large tumors", "settings": "Colorectal"}, "[11]": {"system": "NCI-H460", "assay": "in vivo anti-tumor efficacy, NCI-H460 xenograft model", "settings": "Lung (non-small-cell), NCI-H460, 25 mg/kg/d"}, "[12]": {"system": "FaDu", "assay": "in vivo anti-tumor efficacy, FaDu xenograft model", "settings": "Head and neck, 100 mg/kg/d"}, "[13]": {"system": "Rip-Tag", "assay": "in vivo anti-tumor efficacy, Rip-Tag murine transgenic pancreas model"}, "[14]": {"system": "GS-9L", "assay": "in vivo anti-tumor efficacy, GS-9L syngeneic rat tumor model", "settings": "Glioblastoma, 50 mg/kg/d"}, "[15]": {"settings": "250 mg twice daily maintenance, preliminary data output"}}}
{"smiles": "CCS(=O)(=O)O.COC(=O)c1ccc2c(c1)NC(=O)/C2=C(\\Nc1ccc(N(C)C(=O)CN2CCN(C)CC2)cc1)c1ccccc1", "note": "[compound A1, 3-Z-[1-(4-(N-((4-methyl-piperazin-1-yl)-methylcarbonyl)-N-methyl-amino)-anilino)-1-phenyl-methylene]-6-methoxycarbonyl-2-indolinone-monoethanesulphonate]", "values": [{"measurement": "T/C value", "setting": "[1]", "value": 33, "unit": "%"}, {"measurement": "period the patient with the CR has been maintained on monotherapy", "setting": "[2]; compound A1 monotherapy after combination stage", "value": "over 63 weeks"}, {"measurement": "Maximum Tolerated Dose (MTD) of compound A1", "setting": "[2]; in combination with standard dose of compound B1 (500 mg/m^2)", "value": 200, "unit": "mg bid"}, {"measurement": "Overall Survival (OS) time", "setting": "[3]; 150 mg twice daily", "value": 144, "unit": "days"}, {"measurement": "median Progression Free Survival (PFS) time", "setting": "[3]; 150 mg twice daily", "value": 48, "unit": "days"}, {"measurement": "Overall Survival (OS) time", "setting": "[3]; 250 mg twice daily", "value": 208, "unit": "days"}, {"measurement": "median Progression Free Survival (PFS) time", "setting": "[3]; 250 mg twice daily", "value": 53, "unit": "days"}, {"measurement": "median overall survival (OS)", "setting": "[3]; all patients (ECOG 0-2)", "value": 153, "unit": "days"}, {"measurement": "median PFS", "setting": "[3]; baseline ECOG of 0 or 1, 150 mg twice daily", "value": 81, "unit": "days"}, {"measurement": "median PFS", "setting": "[3]; baseline ECOG of 0 or 1, 250 mg twice daily", "value": 85, "unit": "days"}, {"measurement": "patients with stable disease", "setting": "[3]; baseline ECOG of 2", "value": "one of the 17 patients"}, {"measurement": "reduction (partial response) in tumor size", "setting": "[3]; one patient, 250 mg twice daily, sustained through 9 months", "value": 74, "unit": "%"}, {"measurement": "median OS", "setting": "[3]; patients with ECOG score of 0-1", "value": 264, "unit": "days"}, {"measurement": "patients achieving clinical benefit", "setting": "[3]; subgroup with ECOG 0 or 1", "value": "~60", "unit": "%"}, {"measurement": "PFS rate at 6 months (24 weeks)", "setting": "[4]; [15]", "value": 28.3, "unit": "%"}, {"measurement": "PFS rate at 9 months (36 weeks)", "setting": "[4]; [15]", "value": 16.5, "unit": "%"}, {"measurement": "median time to progression", "setting": "[4]; based on radiological data, disregarding tumour marker progression", "value": 143, "unit": "days"}, {"measurement": "PFS rate at 3 months (12 weeks)", "setting": "[4]; versus placebo arm", "value": "not different between arms"}, {"measurement": "time between tumour marker progression and radiological progression", "setting": "[4]; versus placebo arm", "value": "longer"}]}
{"smiles": "Nc1nc2[nH]cc(CCc3ccc(C(=O)N[C@@H](CCC(=O)[O-])C(=O)[O-])cc3)c2c(=O)[nH]1.[Na+].[Na+]", "note": "[compound B1, N-[4-[2-(2-amino-4,7-dihydro-4-oxo-1H-pyrrolo[2,3-d]pyrimidin-5-yl)ethyl]benzoyl]-L-Glutamic acid, disodium salt, heptahydrate, reference compound]", "values": [{"measurement": "T/C value", "setting": "[1]", "value": 46, "unit": "%"}]}
{"smiles": "COC(=O)c1ccc2c(c1)NC(=O)/C2=C(\\Nc1ccc(N(C)C(=O)CN2CCN(C)CC2)cc1)c1ccccc1", "note": "[compound A, 3-Z-[1-(4-(N-((4-methyl-piperazin-1-yl)-methylcarbonyl)-N-methyl-amino)-anilino)-1-phenyl-methylene]-6-methoxycarbonyl-2-indolinone]", "values": [{"measurement": "T/C", "setting": "[5]", "value": "T/C 24% @ 50 mg/kg/d"}, {"measurement": "T/C", "setting": "[6]", "value": "T/C 19% @ 50 mg/kg/d"}, {"measurement": "T/C", "setting": "[7]", "value": "T/C 34% @ 100 mg/kg/d"}, {"measurement": "T/C", "setting": "[8]", "value": "T/C 16% @ 100 mg/kg/d"}, {"measurement": "T/C", "setting": "[9]", "value": "T/C 13% @ 100 mg/kg/d"}, {"measurement": "Efficacy", "setting": "[10]", "value": "tumor volume reduction"}, {"measurement": "T/C", "setting": "[11]", "value": "T/C 54% @ 25 mg/kg/d"}, {"measurement": "T/C", "setting": "[12]", "value": "T/C 11% @ 100 mg/kg/d"}, {"measurement": "Efficacy (cell wraps: interference with tumor formation)", "setting": "[13]", "value": "interference with"}, {"measurement": "T/C", "setting": "[14]", "value": "T/C 32% @ 50 mg/kg/d"}]}
